Counter-ions that a name gives are not always drawn.
Key:
[1] = system: ROCK II; assay: ROCK II expression in HepG2 cells; type: cell-based; conditions: HepG2; for RhoA/ROCK II expression: exogenous GGPP or FPP alone
Description: (§1) HepG2 cells were treated with various concentrations of drugs for 24 hours. Reactions were terminated by washing twice with cold PBS, and the cells were then harvested, Proteins in the whole-cell lysate were homogenized in an ice-cold lysis buffer and a protease inhibitor (Sigma-Aldrich, St. Louis, Mo., U.S.A.). The homogenate was centrifuged at 90, 000 g for 15 minutes at 4° C., and supernatant was recovered as the total cellular protein. Cytosolic and membrane fractions of HepG2 cells were prepared using a. CNM (Cytosol Nuclear Membrane) compartment protein extraction kit (BioChain Institute Inc., Hayward, Calif., U.S.A.) according to the manufacturer's instructions. All of the fractionated protein solutions were stored at -80° C. until analysis. To measure the expression levels of proteins by drugs, the total cell protein was extracted after incubation with treatments for 24 hours and then Western blotting analysis was performed as described previously.

[2] = system: PPARγ; assay: PPARγ expression in HepG2 cells; type: cell-based; conditions: HepG2; for expression of PPARγ: FPP or GGPP (10 μM) alone
Description: as §1, with “−80°” for “-80°”

[3] = system: ABCA1; assay: ABCA1 expression in HepG2 cells; type: cell-based; conditions: HepG2; for expression of ABCA1: FPP or GGPP (10 μM) alone
Description: as §1, with “−80°” for “-80°”

[4] = system: Rho-kinase; assay: Table 3 Rho-kinase (% of control); type: cell-based; conditions: 10 μM; control group = 100 (%)
[5] = system: eNOS; assay: Table 4 eNOS (% of control); type: cell-based; conditions: control group = 100 (%)
[6] = system: PDE-5A; assay: Table 4 PDE-5A (% of control); type: cell-based; conditions: control group = 100 (%)
[7] = system: ROCKII; assay: Table 4 ROCKII (% of control); type: cell-based; conditions: control group = 100 (%)
[8] = system: HMG CoA reductase; assay: HMG CoA reductase expression in HepG2 cells (Western blotting); type: cell-based; conditions: HepG2, mevalonate 60, 80, 100 μM
Description: The HepG2 hepatoma cell line was purchased from the American Type Culture Collection (ATCC; Manassas, Va., U.S.A.). Cells were cultured in DMEM. The culture media was supplemented with 5% heat-Inactivated FBS, penicillin (100 U/mL) and streptomycin (100 μg/mL). Cells were grown in a humidified atmosphere containing 5% CO2 at 37° C., in which the oxygen tension in the incubator was held at 140 mmHg (20% O2, v/v; normoxic conditions).
as §1, with “−80°” for “-80°”

[9] = system: PPAR-γ; assay: Table 3 PPAR-γ (% of control); type: cell-based; conditions: 10 μM; control group = 100 (%)
[10] = system: eNOS; assay: Table 3 eNOS (% of control); type: cell-based; conditions: 10 μM; control group = 100 (%)
[11] = system: p-HSL; assay: Table 3 p-HSL (% of control); type: cell-based; conditions: 10 μM; control group = 100 (%)
[12] = system: mice fed with HFD; assay: HFD-fed mice, 8 weeks, gavage: serum/liver lipids, body weight, food intake; type: in vivo; conditions: HFD mice, 8 weeks, 5 mg/kg
Description: In the 8 week experiment, C57BL/6J male mice (21-22 g), after fasting, were fed a HFD as a model of hyperlipidemia for 8 weeks. During the 2 month experiments, mice fasted for one night before the experiment was changed from a standard diet (STD) to a HFD and then the mice were randomly divided into 5 groups, including 2 control and 3 treatment groups. Six mice were used in each group. […] Liver from the protection group supplemented with KMUP-1 HCl (1 mg/kg/day) were used to determine the HMG CoA reductase expression.
Within 2 months, the 3 day food intake average for each animal was measured. The weight gain and plasma lipid levels of each group were determined and compared to the non-treatment control group. Mouse blood was collected during the daytime by cardiac puncture followed by centrifugation at 90 g (Benchtop Centrifuge, U.S.A.) to separate the serum, and frozen at −80° C., for biochemical analysis using a Hitachi Clinical Analyzer 7070 (Hitachi High-Technologies Co. Tokyo, Japan). Agents used in the assays were Obtained from Merck & Co. (Kenilworth, N.J., U.S.A.). Triglyceride (TG), total cholesterol, HDL cholesterol and LDL cholesterol in mouse serum were measured by methods used in the clinic. To measure the hepatic TG, isolated liver were cut into small chips.

[13] = simvastatin, KMUP-1, Y27632 10^−5M, C3 exoenzyme

With `CC(C)=CCC/C(C)=C/CC/C(C)=C/CC/C(C)=C/COP(=O)(O)OP(=O)(O)O` [GGPP, geranylgeranyl pyrophosphate, reference compound] the “RhoA/ROCK II expression” value [1] was “increased”, the “expression of PPARγ” value [2] was “suppressed” and the “expression of ABCA1” value [3] was “suppressed”.

In the case of `COc1ccccc1N1CCN(CCn2cnc3c2c(=O)n(C)c(=O)n3C)CC1` [KMUP-2, 7-[2-[4-(2-methoxybenzene)piperazinyl]ethyl]-1,3-dimethylxanthine], the Rho-kinase [4] is reported as 81.9 ± 8.2%.

In the case of `C[C@@H](N)[C@H]1CC[C@H](C(=O)Nc2ccncc2)CC1` [Y27632, reference compound], the “ROCK II expression” value ([1]; C3 exoenzyme 5 μg/ml, Y27632 10 μM) is reported as “reduced”, the “PPARγ expression (FIG. 24C)” value [2, 13] is reported as “increased” and the “ABCA1 expression (FIG. 24D)” value [3, 13] is reported as “increased”.

In the case of `Cl.Cn1c(=O)c2c(ncn2CCN2CCN(c3ccc([N+](=O)[O-])cc3)CC2)n(C)c1=O` [KMUP-3 HCl, 7-[2-[4-(4-nitrobenzene)piperazinyl]ethyl]-1,3-dimethyl xanthine HCl complex], the eNOS [5] is reported as 148.31 ± 7.5%, the PDE-5A [6] is reported as 63.6 ± 5.2% and the ROCKII [7] is reported as 44.5 ± 2.9%.

`CC(C)=CCC/C(C)=C/CC/C(C)=C/COP(=O)(O)OP(=O)(O)O` [FPP, farnesyl pyrophosphate, reference compound] was tested, and the “RhoA/ROCK II expression” value [1] was “increased”, the “expression of PPARγ” value [2] was “suppressed” and the “expression of ABCA1” value [3] was “suppressed”.

For `CC(O)(CCO)CC(=O)O` (stereo not shown) [mevalonate, reference compound], the “HMG CoA reductase expression” value [8] was “concentration-dependently reduced”.

`Cn1c(=O)c2c(ncn2CCN2CCN(c3ccccc3[N+](=O)[O-])CC2)n(C)c1=O` [KMUP-4, 7-[2-[4-(2-nitrobenzene)piperazinyl]ethyl]-1,3-dimethylxanthine] gave a PPAR-γ [9] of 143.7 ± 11.3%, an eNOS [10] of 125.6 ± 13.6% and a Rho-kinase [4] of 83.7 ± 7.5%. The p-HSL [11] was 136.5 ± 12.6%.

Work on `Cn1c(=O)c2c(ncn2CCN2CCN(c3ccccc3[N+](=O)[O-])CC2)n(C)c1=O` [KMUP-3, 7-[2-[4-(2-nitrobenzene)piperazinyl]ethyl]-1,3-dimethylxanthine] yielded a PPAR-γ [9] of 140.8 ± 15.7%, an eNOS [10] of 131.5 ± 13.7% and a Rho-kinase [4] of 79.4 ± 6.9%. For the same compound, the p-HSL [11] was 138.2 ± 14.4%.

With `Cn1c(=O)c2c(ncn2CCN2CCN(c3ccccc3[N+](=O)[O-])CC2)n(C)c1=O` [KMUP-4 HCl] the eNOS [5] was 135.24 ± 7.5%, the PDE-5A [6] was 73.4 ± 3.4% and the ROCKII [7] was 37.6 ± 2.8%.

`Nc1nc2c(nc(Sc3ccc(Cl)cc3)n2[C@@H]2O[C@@H]3CO[P@@](=O)(S)O[C@H]3[C@H]2O)c(=O)[nH]1` [Rp-8-pCPT-cGMPS, 8-(p-chloro-phenylthio)guanosine-3,5-monophosphorothioate] was tested, and the “ROCK II expression” value ([1]; 10 μM cGMP antagonist) was “increased”.

In the case of `CCC(C)(C)C(=O)O[C@H]1C[C@@H](C)C=C2C=C[C@H](C)[C@H](CC[C@@H]3C[C@@H](O)CC(=O)O3)[C@H]21` [simvastatin, reference compound], the HDL cholesterol [12] is reported as 103.2 ± 2.5 mg/dL, the LDL cholesterol [12] is reported as 15.3 ± 1.3 mg/dL and the TG in serum [12] is reported as 82.7 ± 6.3 mg/dL. For the same compound, the TG of liver [12] was 34.5 ± 2.** mg/dl, the “Tot. chol. (total cholesterol)” value [12] was 133.7 ± 4.3 mg/dL and the “final BW (Body weight)” value [12] was 23.9 ± 0.9 g.

`COc1ccccc1N1CCN(CCn2cnc3c2c(=O)n(C)c(=O)n3C)CC1` [KMUP-2 HCl] gave a PDE-5A [6] of 68.8 ± 5.3% and an ROCKII [7] of 40.8 ± 3.7%.

Source: patent US20150359798A1, “PIPERAZINYL DERIVATIVE REDUCES HIGH-FAT DIET-INDUCED ACCUMULATION OF FAT IN THE LIVERS, […]” (priority 2011, published 2015)
